These results are taken from patent US20040043403A1, “Process for determining the biological activity of epidermal growth factor receptor tyrosine kinase inhibitors” (priority 2000, published 2004).

One test concerns NCI-H596. Description: Real time RT-PCR gene expression in NCI-H596 cells. The test is classed as cell-based, human. Particulars: NCI-H596, 3 μM, 24 h; relative to DMSO-treated NCI-H520 calibrator. The method, then:
20 million tissue culture cells (about 80% confluent) or 200 million WBCs are incubated for 2 or 24 h in culture medium containing 3 μM of an EGFR tyrosine kinase inhibitor or 0.03% DMSO. Total RNA from cell pellet is isolated using the RNeasy kit (Qiagen). mRNA is isolated using the oligotex mRNA purification kit (Qiagen). The quality of the obtained mRNA is tested by real time RT-PCR using beta-Actin primers (PE Applied Biosystems) with an amplicon size of 300 base pairs (bp). The total RNA is used as a reference to calculate the amount of mRNA-enrichment in the oligotex purified samples. The primers and probes are designed from mRNA sequences within the coding region or in the 3′ untranslated region (Table 2). For real time RT-PCR, RNA concentrations between 1 and 50 ng/reaction are used to obtain signals between 15-35 cycles. For each RNA preparation RT-PCR reactions are performed with and without reverse transcriptase to check for genomic DNA contamination. In all RNA samples tested, genomic DNA contamination is less than 1%. To normalize for variability in the initial concentration and quality of the total RNA, Glyceraldehyde-3-phosphate dehydrogenase (GAPDH) is used as an endogenous reference in all quantification experiments. For RT-PCR a one step, two-enzyme system is chosen. The TaqMan PCR Core Reagent Kit (PE #N808-0228) plus the reverse transcriptase MuLV (PE Biosystems # N808-0018) and RNase inhibitor (Roche Diagnostics # 799 025) are mixed as described in the manufacturers protocol. Triplicate measurements are done for target and for reference reactions. […] RT-PCR reactions are done with RNA concentrations of 2.5, 5, 10, 20, 40 and 80 ng per reaction. […] The ΔCT value is determined by subtracting the average reference CT values from the average target CT values of the three measurements. Relative quantification is performed in triplicates, reference and target, using the RT-PCR protocol described above. […] Expression levels for the three genes, calculated relative to NCI-H520, show big differences between the various cell types (Table 5). […]
In general terms: In qPCR the cycle at which signal appears reflects the starting amount.

Test [1] concerns A431, NCI-H596, NCI-H520, MDA-MB-468 and WBCs. Put plainly: UniGEM V array 2 h expression profiles of 4 tumor cell lines and WBCs. The test is classed as cell-based, human. Particulars: 3 μM, cut off set at 3, vs DMSO, data not shown. The method, then:
20 million tissue culture cells (about 80% confluent) or 200 million WBCs are incubated for 2 or 24 h in culture medium containing 3 μM of an EGFR tyrosine kinase inhibitor or 0.03% DMSO. Total RNA from cell pellet is isolated using the RNeasy kit (Qiagen). mRNA is isolated using the oligotex mRNA purification kit (Qiagen). The quality of the obtained mRNA is tested by real time RT-PCR using beta-Actin primers (PE Applied Biosystems) with an amplicon size of 300 base pairs (bp). The total RNA is used as a reference to calculate the amount of mRNA-enrichment in the oligotex purified samples.
Probes for the UniGEM hybridization are synthesized by Incyte Genomics (Palo Alto, Calif., USA). For each probe 200 ng mRNA (50 ng/μl) is shipped in dry ice. The results are analyzed using the Expressionist Software Package provided by GeneData.
Expression profiles (UniGEM V arrays) of 4 tumor cell lines with different EGFR expression status (A431, NCI-H596, NCI-H520 and MDA-MB-468) and of WBCs upon exposure of cells to 3 μM of COMPOUND A for 2 or 24 h are analyzed. As control, cells treated with DMSO for the same time period are used. […] The cDNA array hybridization is repeated with the UniGEM 1 array using the same mRNA (Table 3).

On to `C[C@@H](Nc1ncnc2[nH]c(-c3ccc(O)cc3)cc12)c1ccccc1` [COMPOUND A, (R)-6-(4-hydroxy-phenyl)-4-[(1-phenyl-ethyl)-amino]-7H-pyrrolo[2,3-d]pyrimidine], for which, in the test with NCI-H596, the “Relative Clusterin expression” value stood at 44.12 n-fold, the “Relative TRAIL expression” value worked out at 81.76 n-fold and the “Relative VAC-beta expression” value is given as 102.30 n-fold. For the same compound, in test [1], the “2 h expression profiles, induced and repressed genes” value was “almost no induced genes and only few repressed genes”; the “2 h expression profiles: early growth response protein 1” value was “repression in two cell lines and WBCs”.
